Measurements from PubChem BioAssay AID330 (DTP/NCI, 2004).
Where “and” joins values, the source holds several entries; their conditions need not be identical. Identical values can stand only once. Toxic doses and inconclusive results are not listed. Rule for the calls: active = survival T/C of 150% or more; inactive = T/C below 125% in these data.

System: P388 leukemia ip, CD2F1 mice, survival T/C
Assay: NCI In Vivo Anticancer Drug Screen. Data for tumor model P388 Leukemia (intraperitoneal) in CD2F1 (CDF1) mice
Details: endpoint: median survival time, higher = longer survival
In short: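 Mice carrying the transplanted tumor received test compound or vehicle. Survival was recorded in each group, and the value is the treated-group measurement divided by that of the vehicle-treated control group.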

[1] = dose: 50.0 mg/kg/injection, schedule: Q01DX005 (ip), vehicle: saline with Tween-80
[2] = dose: 100.0 mg/kg/injection, schedule: Q01DX005 (ip), vehicle: saline with Tween-80
[3] = dose: 200.0 mg/kg/injection, schedule: Q01DX005 (ip), vehicle: saline with Tween-80
[4] = dose: 25.0 mg/kg/injection, schedule: Q01DX009 (ip), vehicle: saline with Tween-80
[5] = dose: 50.0 mg/kg/injection, schedule: Q01DX009 (ip), vehicle: saline with Tween-80
[6] = dose: 100.0 mg/kg/injection, schedule: Q04DX002 (ip), vehicle: Klucel (hydroxypropylcellulose) (HPC)
[7] = dose: 200.0 mg/kg/injection, schedule: Q04DX002 (ip), vehicle: Klucel (hydroxypropylcellulose) (HPC)

Measured: T/C

NC(CCSSCCC(N)P(=O)(O)O)P(=O)(O)O (centres undefined)
inactive: [1] 95 % of control | [2] 92 % of control | [3] 99 % of control

C/C(CCCC(C)(C)C(=O)O)=N/Nc1ccc([N+](=O)[O-])cc1[N+](=O)[O-]
inactive: dose: 12.5 mg/kg/injection, schedule: Q01DX009 (ip), vehicle: saline with Tween-80 104 % of control | [4] 100 % of control | [5] 92 % of control and 95 % of control

O=C1NC(c2cccc3ccccc23)Nc2ccc(O)cc21 (centres undefined)
inactive: dose: 8.75 mg/kg/injection, schedule: Q01DX005 (ip), vehicle: DMSO 102 % of control | dose: 17.5 mg/kg/injection, schedule: Q01DX005 (ip), vehicle: DMSO 100 % of control | dose: 35.0 mg/kg/injection, schedule: Q01DX005 (ip), vehicle: DMSO 102 % of control | dose: 70.0 mg/kg/injection, schedule: Q01DX005 (ip), vehicle: DMSO 98 % of control | dose: 140.0 mg/kg/injection, schedule: Q01DX005 (ip), vehicle: DMSO 100 % of control

O=C(c1ccccc1)C(c1ccccc1)n1nc2c(c1-c1ccccc1)CCCC2 (centres undefined)
inactive: dose: 50.0 mg/kg/injection, schedule: Q01DX009 (ip), vehicle: Klucel (hydroxypropylcellulose) (HPC) 98 % of control | dose: 100.0 mg/kg/injection, schedule: Q01DX009 (ip), vehicle: Klucel (hydroxypropylcellulose) (HPC) 91 % of control | dose: 200.0 mg/kg/injection, schedule: Q01DX009 (ip), vehicle: Klucel (hydroxypropylcellulose) (HPC) 97 % of control

[N-]=[N+]=CC(=O)Oc1ccc([N+](=O)[O-])cc1
inactive: dose: 3.13 mg/kg/injection, schedule: Q01DX009 (ip), vehicle: other 100 % of control | dose: 6.25 mg/kg/injection, schedule: Q01DX009 (ip), vehicle: other 98 % of control | dose: 12.5 mg/kg/injection, schedule: Q01DX009 (ip), vehicle: other 104 % of control | dose: 25.0 mg/kg/injection, schedule: Q01DX009 (ip), vehicle: other 98 % of control and 97 % of control | dose: 50.0 mg/kg/injection, schedule: Q01DX009 (ip), vehicle: other 89 % of control

O=C(Nc1ccc(C(=O)O)cc1)Nc1ccc(C(=O)O)cc1
inactive: [6] 99 % of control | [7] 109 % of control

CC(=O)N(c1nc2ccccc2n1C)C(C)C
inactive: [4] 110 % of control | [5] 98 % of control | dose: 100.0 mg/kg/injection, schedule: Q01DX009 (ip), vehicle: saline with Tween-80 115 % of control

Cc1nn(C(=S)S)c(C)c1N=Nc1ccc(F)cc1
inactive: [1] 103 % of control | [2] 110 % of control | [3] 101 % of control

COc1ccc2cc1Oc1ccc(cc1)C[C@@H]1c3cc(c(OC)cc3CCN1C)Oc1c(OC)c(OC)cc3c1[C@H](C2)N(C)CC3
inactive: dose: 25.0 mg/kg/injection, schedule: Q04DX002 (ip), vehicle: suspension in saline 99 % of control | dose: 50.0 mg/kg/injection, schedule: Q04DX002 (ip), vehicle: suspension in saline 100 % of control | dose: 100.0 mg/kg/injection, schedule: Q04DX002 (ip), vehicle: suspension in saline 100 % of control | dose: 200.0 mg/kg/injection, schedule: Q04DX002 (ip), vehicle: suspension in saline 93 % of control

c1ccc(C2=NC(=c3ccc(=C4N=C(c5ccccc5)C(c5ccccc5)=N4)cc3)N=C2c2ccccc2)cc1
inactive: dose: 60.0 mg/kg/injection, schedule: Q01DX005 (ip), vehicle: Klucel (hydroxypropylcellulose) (HPC) 90 % of control | dose: 120.0 mg/kg/injection, schedule: Q01DX005 (ip), vehicle: Klucel (hydroxypropylcellulose) (HPC) 90 % of control | dose: 240.0 mg/kg/injection, schedule: Q01DX005 (ip), vehicle: Klucel (hydroxypropylcellulose) (HPC) 100 % of control

O=[N+]([O-])c1ccccc1/C(=N\O)c1cccs1
inactive: [6] 107 % of control | [7] 100 % of control

CC1(C)CC(=O)c2c(ncc3cc4c(cc23)OCO4)C1
inactive: dose: 100.0 mg/kg/injection, schedule: Q04DX002 (ip), vehicle: saline with Tween-80 110 % of control | dose: 200.0 mg/kg/injection, schedule: Q04DX002 (ip), vehicle: saline with Tween-80 118 % of control

O=C(NC(Cc1ccc(Br)cc1)C(=O)O)c1ccc(Cl)cc1 (centres undefined)
inactive: dose: 50.0 mg/kg/injection, schedule: Q01DX005 (ip), vehicle: Klucel (hydroxypropylcellulose) (HPC) 100 % of control | dose: 100.0 mg/kg/injection, schedule: Q01DX005 (ip), vehicle: Klucel (hydroxypropylcellulose) (HPC) 100 % of control | dose: 200.0 mg/kg/injection, schedule: Q01DX005 (ip), vehicle: Klucel (hydroxypropylcellulose) (HPC) 102 % of control

CC(=O)N(c1ccccc1)C1CCC2(C)C(=CCC3C2CCC2(C)C(C(C)CCCC(C)C)CCC32)C1 (centres undefined)
inactive: dose: 100.0 mg/kg/injection, schedule: Q04DX003 (sc), vehicle: steriod suspending solution 100 % of control | dose: 200.0 mg/kg/injection, schedule: Q04DX003 (sc), vehicle: steriod suspending solution 100 % of control | dose: 400.0 mg/kg/injection, schedule: Q04DX003 (sc), vehicle: steriod suspending solution 104 % of control
